# In US11021493B2, “1,4-thiazine dioxide and 1,2,4-thiadiazine dioxide derivatives as beta-secretase inhibitors and methods of use” (AMGEN INC., priority 2016, dated 2021):
# Key:
# BACE1 [1] = biological target: T1, BACE1 (Homo sapiens (Human), UniProt P56817); assay: In vitro enzymatic BACE1 FRET assay; format: biochemical; details: read-out: BACE1 Enzyme IC50
# Target sequence in this assay (P56817 46-501): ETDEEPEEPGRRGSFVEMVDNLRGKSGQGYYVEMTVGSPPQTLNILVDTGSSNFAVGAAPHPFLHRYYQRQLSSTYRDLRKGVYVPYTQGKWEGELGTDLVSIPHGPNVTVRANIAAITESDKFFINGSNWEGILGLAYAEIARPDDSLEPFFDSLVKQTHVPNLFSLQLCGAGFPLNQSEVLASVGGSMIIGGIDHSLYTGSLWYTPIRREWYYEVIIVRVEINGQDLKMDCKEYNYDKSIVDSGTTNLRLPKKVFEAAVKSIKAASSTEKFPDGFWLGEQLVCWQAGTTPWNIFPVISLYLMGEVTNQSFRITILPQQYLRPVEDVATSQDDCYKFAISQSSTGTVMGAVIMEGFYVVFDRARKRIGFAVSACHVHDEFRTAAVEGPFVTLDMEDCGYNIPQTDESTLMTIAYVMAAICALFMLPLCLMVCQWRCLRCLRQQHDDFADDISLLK
# human recombinant BACE2 = human recombinant BACE2 (Homo sapiens (Human), UniProt Q9Y5Z0); assay: In vitro enzymatic BACE2 FRET assay; format: biochemical; details: read-out: BACE2 Enzyme IC50
# Cathepsin D (CatD) = Cathepsin D (CatD) (Homo sapiens (Human), UniProt P07339); assay: In vitro enzymatic Cathepsin D (CatD) FRET assay; format: biochemical; details: read-out: Cat D Enzyme IC50
# BACE1 [2] = biological target: T1, BACE1; assay: In vitro BACE1 cell-based assay (Aβ40 in conditioned medium of cells stably expressing APP, HTRF)
# Target sequence in this assay (P56817 46-501, species assumed): as the sequence (P56817 46-501) above
# [3] = Aβ40 in conditioned media after 24 h incubation
# Cathepsin D (CatD), sequence (P07339 65-412, species assumed): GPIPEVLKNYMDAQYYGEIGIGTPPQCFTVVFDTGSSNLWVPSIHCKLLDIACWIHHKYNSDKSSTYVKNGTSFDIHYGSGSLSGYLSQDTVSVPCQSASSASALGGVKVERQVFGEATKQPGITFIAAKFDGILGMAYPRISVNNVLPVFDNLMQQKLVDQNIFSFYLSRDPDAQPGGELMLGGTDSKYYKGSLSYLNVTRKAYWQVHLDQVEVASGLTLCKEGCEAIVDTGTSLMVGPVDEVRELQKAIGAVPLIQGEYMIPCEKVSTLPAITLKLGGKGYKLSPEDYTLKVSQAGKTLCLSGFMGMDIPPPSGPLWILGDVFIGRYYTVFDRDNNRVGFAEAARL
# human recombinant BACE2, sequence (Q9Y5Z0 63-518): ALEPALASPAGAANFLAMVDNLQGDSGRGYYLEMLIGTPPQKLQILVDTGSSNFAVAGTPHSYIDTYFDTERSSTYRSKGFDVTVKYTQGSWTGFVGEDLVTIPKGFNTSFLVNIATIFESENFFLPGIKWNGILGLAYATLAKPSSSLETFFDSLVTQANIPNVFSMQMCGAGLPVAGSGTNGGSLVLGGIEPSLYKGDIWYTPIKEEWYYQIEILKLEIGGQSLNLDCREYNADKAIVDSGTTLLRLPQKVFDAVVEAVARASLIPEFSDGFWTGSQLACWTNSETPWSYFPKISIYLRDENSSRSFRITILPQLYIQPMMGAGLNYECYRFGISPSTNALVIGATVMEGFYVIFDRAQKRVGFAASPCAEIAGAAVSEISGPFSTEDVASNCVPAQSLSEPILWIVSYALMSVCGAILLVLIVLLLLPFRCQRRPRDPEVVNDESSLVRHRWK
IC50 (BACE1 [1]),IC50 (human recombinant BACE2),IC50 (Cathepsin D (CatD)),IC50 (BACE1 [2]; [3]),SMILES,IC50 (BACE1 [2])
33 nM,163 nM,173000 nM,60 nM,"COCCOc1cnc(/C(F)=C/c2ccc(F)c([C@@]3(C)N=C(N)[C@@]4(CF)CC[C@@H]3S4(=O)=O)c2)cn1 [Example 130, (1R,4R,5S)-2-amino-4-(2-fluoro-5-((Z)-2-fluoro-2-(5-(2-methoxyethoxy)pyrazin-2-yl)vinyl)phenyl)-1-(fluoromethyl)-4-methyl-8-thia-3-azabicyclo[3.2.1]oct-2-ene 8,8-dioxide]",–
35 nM,14 nM,15400 nM,99 nM,"CN1C(N)=N[C@](C)(c2cc(/C=C(\F)c3ccc(C#N)s3)ccc2F)CS1(=O)=O [Example 256, 5-((Z)-2-(3-((5R)-3-amino-2,5-dimethyl-1,1-dioxido-5,6-dihydro-2H-1,2,4-thiadiazin-5-yl)-4-fluorophenyl)-1-fluoroethenyl)-2-thiophenecarbonitrile]",–
3 nM,232 nM,77600 nM,22 nM,"C#C[C@H](CC)Oc1cnc(/C(F)=C/c2ccc(F)c([C@]3(C)CS(=O)(=O)C(C)(C)C(N)=N3)c2)cn1 (single isomer, unassigned) [Example 178]",–
39 nM,76 nM,217000 nM,318 nM,"CN1C(N)=N[C@](C)(c2cc(/C=C(\F)c3cnc(Cl)cn3)ccc2F)C(C)(C)S1(=O)=O [Example 182, (R,Z)-3-amino-5-(5-(2-(5-chloropyrazin-2-yl)-2-fluorovinyl)-2-fluorophenyl)-2,5,6,6-tetramethyl-5,6-dihydro-2H-1,2,4-thiadiazine 1,1-dioxide]",–
54 nM,194 nM,> 400000 nM,527 nM,"CCOc1cnc(/C(F)=C/c2ccc(F)c([C@@]3(C)N=C(N)[C@@]4(CF)CC[C@@H]3S4(=O)=O)c2)cn1 [Example 122, (1R,4R,5S)-2-amino-4-(5-((Z)-2-(5-ethoxypyrazin-2-yl)-2-fluorovinyl)-2-fluorophenyl)-1-(fluoromethyl)-4-methyl-8-thia-3-azabicyclo[3.2.1]oct-2-ene 8,8-dioxide]",–
21 nM,182 nM,> 400000 nM,60 nM,"Cc1nnc(COc2cnc(/C(F)=C/c3ccc(F)c([C@@]4(C)N=C(N)[C@@]5(CF)CC[C@@H]4S5(=O)=O)c3)cn2)o1 [Example 119, (1R,4R,5S)-2-amino-4-(2-fluoro-5-((Z)-2-fluoro-2-(5-((5-methyl-1,3,4-oxadiazol-2-yl)methoxy)pyrazin-2-yl)vinyl)phenyl)-1-(fluoromethyl)-4-methyl-8-thia-3-azabicyclo[3.2.1]oct-2-ene 8,8-dioxide]",–
5 nM,21 nM,137000 nM,4 nM,"Cc1cc(C#N)cnc1/C(F)=C/c1ccc(F)c([C@]2(C)CS(=O)(=O)N(C)C(N)=N2)c1 [Example 245, 6-((Z)-2-(3-((5R)-3-amino-2,5-dimethyl-1,1-dioxido-5,6-dihydro-2H-1,2,4-thiadiazin-5-yl)-4-fluorophenyl)-1-fluoroethenyl)-5-methyl-3-pyridinecarbonitrile]",–
179 nM,24 nM,111000 nM,656 nM,"COc1cc(/C(F)=C/c2ccc(F)c([C@]3(C)CS(=O)(=O)N(C)C(N)=N3)c2)ncc1Cl [Example 230, (R,Z)-3-amino-5-(5-(2-(5-chloro-4-methoxypyridin-2-yl)-2-fluorovinyl)-2-fluorophenyl)-2,5-dimethyl-5,6-dihydro-2H-1,2,4-thiadiazine 1,1-dioxide]",–
7 nM,14 nM,47000 nM,341 nM,"CN1C(N)=N[C@](C)(c2cc(/C=C(\F)c3cc(F)c(C#N)cn3)ccc2F)CS1(=O)=O [Example 226, 6-((Z)-2-(3-((5R)-3-amino-2,5-dimethyl-1,1-dioxido-5,6-dihydro-2H-1,2,4-thiadiazin-5-yl)-4-fluorophenyl)-1-fluoroethenyl)-4-fluoro-3-pyridinecarbonitrile]",–
128 nM,52 nM,62200 nM,5090 nM,"CC1(C)C(N)=N[C@](C)(c2cc(/C=C(\F)c3cnc(Cl)cn3)ccc2F)C(F)(F)S1(=O)=O [Example 191, (R,Z)-5-amino-3-(5-(2-(5-chloropyrazin-2-yl)-2-fluorovinyl)-2-fluorophenyl)-2,2-difluoro-3,6,6-trimethyl-3,6-dihydro-2H-1,4-thiazine 1,1-dioxide]",–
11 nM,523 nM,64900 nM,188 nM,"C#C[C@H](C)Oc1cnc(/C(F)=C/c2ccc(F)c([C@]3(CF)CS(=O)(=O)C(C)(C)C(N)=N3)c2)cn1 [Example 195, (S)-5-amino-3-(5-((Z)-2-(5-((S)-but-3-yn-2-yloxy)pyrazin-2-yl)-2-fluorovinyl)-2-fluorophenyl)-3-(fluoromethyl)-6,6-dimethyl-3,6-dihydro-2H-1,4-thiazine 1,1-dioxide]",–
16 nM,622 nM,125000 nM,78 nM,"C#CCOc1cnc(/C(F)=C/c2ccc(F)c([C@@]3(C)N=C(N)N(C)S(=O)(=O)C34CC4)c2)cn1 [Example 138, (8R)-8-(2-fluoro-5-((Z)-2-fluoro-2-(5-(2-propyn-1-yloxy)-2-pyrazinyl)ethenyl)phenyl)-5,8-dimethyl-4-thia-5,7-diazaspiro[2.5]oct-6-en-6-amine 4,4-dioxide]",–
3 nM,45 nM,–,1 nM,"CN1C(N)=N[C@](C)(c2cc(/C=C(\F)c3cnc(OCc4ncco4)cn3)ccc2F)CS1(=O)=O [Example 116, (R,Z)-3-amino-5-(2-fluoro-5-(2-fluoro-2-(5-(oxazol-2-ylmethoxy)pyrazin-2-yl)vinyl)phenyl)-2,5-dimethyl-5,6-dihydro-2H-1,2,4-thiadiazine 1,1-dioxide]",–

SMILES,IC50 (BACE1 [1]),IC50 (human recombinant BACE2),IC50 (Cathepsin D (CatD)),IC50 (BACE1 [2]; [3]),IC50 (BACE1 [2])
"CC1(C)C(N)=N[C@](C)(c2cc(/C=C(\F)c3cnc(C#N)cn3)ccc2F)CS1(=O)=O [Example 170, (R,Z)-5-(2-(3-(5-amino-3,6,6-trimethyl-1,1-dioxido-3,6-dihydro-2H-1,4-thiazin-3-yl)-4-fluorophenyl)-1-fluorovinyl)pyrazine-2-carbonitrile]",2 nM,17 nM,645000 nM,5 nM,–
"C#CCOc1cnc(/C(F)=C/c2ccc(F)c([C@]3(C)CS(=O)(=O)N(C)C(N)=N3)c2)cn1 [Example 112, (R,Z)-3-amino-5-(2-fluoro-5-(2-fluoro-2-(5-(prop-2-yn-1-yloxy)pyrazin-2-yl)vinyl)phenyl)-2,5-dimethyl-5,6-dihydro-2H-1,2,4-thiadiazine 1,1-dioxide]",3 nM,–,35800 nM,–,8 nM
"CC1(C)C(N)=N[C@](C)(c2cc(/C=C(\F)c3cnc(Cl)cn3)cc(F)c2F)CS1(=O)=O [Example 193, (R,Z)-5-amino-3-(5-(2-(5-chloropyrazin-2-yl)-2-fluorovinyl)-2,3-difluorophenyl)-3,6,6-trimethyl-3,6-dihydro-2H-1,4-thiazine 1,1-dioxide]",121 nM,–,82300 nM,833 nM,–
"CN1C(N)=N[C@](C)(c2cc(/C=C(\F)c3cnc(OCC#CCO)cn3)ccc2F)CS1(=O)=O [Example 252, (R,Z)-3-amino-5-(2-fluoro-5-(2-fluoro-2-(5-((4-hydroxybut-2-yn-1-yl)oxy)pyrazin-2-yl)vinyl)phenyl)-2,5-dimethyl-5,6-dihydro-2H-1,2,4-thiadiazine 1,1-dioxide]",10 nM,56 nM,–,7 nM,–
"C#CCOc1cnc(/C(F)=C/c2ccc(F)c([C@@]3(C)N=C(N)C(C)(C)S(=O)(=O)[C@H]3F)c2)cn1 (single isomer, unassigned) [Example 200]",18 nM,86 nM,–,–,206 nM
"C#CCOc1cnc(/C(F)=C/c2ccc(F)c([C@@]3(C)N=C(N)C(C)(C)S(=O)(=O)[C@@H]3F)c2)cn1 (single isomer, unassigned) [Example 201]",6 nM,82 nM,–,–,214 nM
"C[C@]1(c2cc(/C=C(/F)C3CCCO3)ccc2F)N=C(N)[C@@]2(CF)CC[C@@H]1S2(=O)=O (stereo partly drawn) [Example 278, (1R,4R,5S)-2-amino-4-(2-fluoro-5-((E)-2-fluoro-2-(tetrahydrofuran-2-yl)vinyl)phenyl)-1-(fluoromethyl)-4-methyl-8-thia-3-azabicyclo[3.2.1]oct-2-ene 8,8-dioxide]",1110 nM,–,–,1980 nM,–
"Cc1cc(COc2cnc(/C(F)=C/c3cc(F)c(F)c([C@]4(C)CS(=O)(=O)N(C)C(N)=N4)c3)cn2)on1 [Example 221, (R,Z)-3-amino-5-(2,3-difluoro-5-(2-fluoro-2-(5-((3-methylisoxazol-5-yl)methoxy)pyrazin-2-yl)vinyl)phenyl)-2,5-dimethyl-5,6-dihydro-2H-1,2,4-thiadiazine 1,1-dioxide]",38 nM,197 nM,–,–,215 nM
"C[C@]1(c2cc(/C=C(\F)c3ccc(Br)cn3)ccc2F)N=C(N)C2(CF)CC[C@@H]1S2(=O)=O (stereo in doubt) [Example 101, (1R,4R,5S)-2-amino-4-(5-((Z)-2-(5-bromopyridin-2-yl)-2-fluorovinyl)-2-fluorophenyl)-1-(fluoromethyl)-4-methyl-8-thia-3-azabicyclo[3.2.1]oct-2-ene 8,8-dioxide]",5 nM,13 nM,–,79 nM,–
"C#CCOc1cnc(/C(F)=C/c2ccc(F)c([C@@]3(C)N=C(N)C(C)(C)S(=O)(=O)C3(F)F)c2)cn1 [Example 202, (R,Z)-5-amino-2,2-difluoro-3-(2-fluoro-5-(2-fluoro-2-(5-(prop-2-yn-1-yloxy)pyrazin-2-yl)vinyl)phenyl)-3,6,6-trimethyl-3,6-dihydro-2H-1,4-thiazine 1,1-dioxide]",166 nM,870 nM,–,–,9570 nM
